Read-outs that look alike come from different tables or passages of the source.
Legend:
Mino cells = assay: Antiproliferative effect, MTS cell viability assay, Mino cells; format: cell-based; settings: Homo sapiens, MINO, Mino mantle cell lymphoma cells; read-out: IC50 (anti-proliferation) Mino cells
Outline: (§1)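 Cells were exposed to compound at 0, 0.001, 0.01, 0.1, 1 and 10 μM for 72 h. Viability was then measured by MTS assay, reading formazan produced by metabolically active cells as absorbance at 490 nm.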

BTK = BTK (Homo sapiens, UniProt Q06187); assay: Degradation of BTK protein in Namalwa cells (Western blot; DC50, Dmax); settings: for DC50: cell line not given
Sequence of BTK (Q06187 whole entry): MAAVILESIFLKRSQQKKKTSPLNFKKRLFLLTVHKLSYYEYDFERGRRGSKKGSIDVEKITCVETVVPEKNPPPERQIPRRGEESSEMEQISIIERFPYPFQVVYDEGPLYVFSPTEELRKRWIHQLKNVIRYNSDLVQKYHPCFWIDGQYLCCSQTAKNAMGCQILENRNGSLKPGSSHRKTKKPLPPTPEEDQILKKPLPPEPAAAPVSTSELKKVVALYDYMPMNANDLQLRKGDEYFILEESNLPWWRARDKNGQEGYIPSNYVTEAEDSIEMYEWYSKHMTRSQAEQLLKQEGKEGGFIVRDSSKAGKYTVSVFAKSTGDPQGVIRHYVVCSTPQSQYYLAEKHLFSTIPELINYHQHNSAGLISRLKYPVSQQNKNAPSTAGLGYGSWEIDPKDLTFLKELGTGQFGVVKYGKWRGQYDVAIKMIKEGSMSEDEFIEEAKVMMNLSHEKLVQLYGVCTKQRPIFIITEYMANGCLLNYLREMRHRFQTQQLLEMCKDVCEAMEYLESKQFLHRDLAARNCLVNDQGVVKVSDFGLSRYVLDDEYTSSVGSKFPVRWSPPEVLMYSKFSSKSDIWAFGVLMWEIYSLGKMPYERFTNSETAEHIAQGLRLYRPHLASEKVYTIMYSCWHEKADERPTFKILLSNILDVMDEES

JeKo-1 cells = assay: Antiproliferative effect, MTS cell viability assay, JeKo-1 cells; format: cell-based; settings: Homo sapiens; JeKo-1 mantle cell lymphoma cells; read-out: IC50 (anti-proliferation) JeKO-1 cells
Outline: as §1

[1] = read-out: DC50 (BTK degradation), concentration giving 50% reduction of BTK expression level
[2] = read-out: Dmax (BTK degradation)

| Compound | IC50 (Mino cells) | Dmax (BTK) | DC50 (BTK; BTK degradation) | IC50 (JeKo-1 cells) | DC50 (BTK; [1]) | Dmax (BTK; [2]) | degradation of BTK protein (BTK; Namalwa B lymphocyte cells, various concentrations, 24 hours, Western blot) |
| --- | --- | --- | --- | --- | --- | --- | --- |
| NC(=O)c1c(-c2ccc(Oc3ccccc3)cc2)nn2c1NCCC2C1CCN(CC2CCN(C(=O)N3CCN(CC4CCN(c5ccc6c(c5)C(=O)N(C5CCC(=O)NC5=O)C6=O)CC4)CC3)CC2)CC1 (centres unmarked) [Compound 371] | < 1000 nM | > 90% | 10 to 50 nM | < 1000 nM |  |  |  |
| NC(=O)c1c(-c2ccc(Oc3ccccc3)cc2)nn2c1NCC[C@H]2C1CCN(C2CCN(C(=O)N3CCC(N4CCC(c5ccc6c(c5)CN(C5CCC(=O)NC5=O)C6=O)CC4)CC3)CC2)CC1 (stereo partly drawn) [Compound 388, (7S)-7-(1′-(4-(2-(2,6-dioxopiperidin-3-yl)-1-oxoisoindolin-5-yl)-[1,4′-bipiperidine]-1′-carbonyl)-[1,4′-bipiperidin]-4-yl)-2-(4-phenoxyphenyl)-4,5,6,7-tetrahydropyrazolo[1,5-a]pyrimidine-3-carboxamide] | < 1000 nM | > 90% | 10 to 50 nM | 1000 to 10000 nM |  |  |  |
| Nc1ncnc2c1c(-c1ccc(Oc3ccccc3)cc1)nn2[C@@H]1CCCN(C2CCN(C(=O)N3CCC(CCCC4CCN(c5ccc6c(c5)C(=O)N(C5CCC(=O)NC5=O)C6=O)CC4)CC3)CC2)C1 (stereo partly drawn) [Compound 195, 5-(4-(3-(1-((R)-3-(4-amino-3-(4-phenoxyphenyl)-1H-pyrazolo[3,4-d]pyrimidin-1-yl)-[1,4′-bipiperidine]-1′-carbonyl)piperidin-4-yl)propyl)piperidin-1-yl)-2-(2,6-dioxopiperidin-3-yl)isoindoline-1,3-dione] | > 10000 nM | > 75% | > 50 nM | 1000 to 10000 nM |  |  |  |
| NC(=O)c1c(-c2ccc(Oc3ccccc3)cc2)nn2c1NCC[C@H]2C1CCN(C2CCN(CCN3CCN(c4ccc5c(c4)C(=O)N(C4CCC(=O)NC4=O)C5=O)CC3)CC2)CC1 (stereo partly drawn) [Compound 323, (7S)-7-(1′-(2-(4-(2-(2,6-dioxopiperidin-3-yl)-1,3-dioxoisoindolin-5-yl)piperazin-1-yl)ethyl)-[1,4′-bipiperidin]-4-yl)-2-(4-phenoxyphenyl)-4,5,6,7-tetrahydropyrazolo[1,5-a]pyrimidine-3-carboxamide] | 1000 to 10000 nM | > 75% | 10 to 50 nM | 1000 to 10000 nM |  |  |  |
| Nc1ncnc2c1c(-c1ccc(Oc3ccccc3)cc1)nn2C1CCN(C2CCN(C(=O)N3CCN(CCN4CCN(c5ccc6c(c5)CN(C5CCC(=O)NC5=O)C6=O)CC4)CC3)CC2)CC1 (centres unmarked) [Compound 246, 3-(5-(4-(2-(4-(4-(4-amino-3-(4-phenoxyphenyl)-1H-pyrazolo[3,4-d]pyrimidin-1-yl)-[1,4′-bipiperidine]-1′-carbonyl)piperazin-1-yl)ethyl)piperazin-1-yl)-1-oxoisoindolin-2-yl)piperidine-2,6-dione] | 1000 to 10000 nM | > 75% | 10 to 50 nM | 1000 to 10000 nM |  |  |  |
| Nc1ncnc2c1c(-c1ccc(Oc3ccccc3)cc1)nn2C1CCN(C2CCN(C(=O)N3CCC(c4ccc5c(c4)C(=O)N(C4CCC(=O)NC4=O)C5=O)CC3)CC2)CC1 (centres unmarked) [Compound 227, 5-(1-(4-(4-amino-3-(4-phenoxyphenyl)-1H-pyrazolo[3,4-d]pyrimidin-1-yl)-[1,4′-bipiperidine]-1′-carbonyl)piperidin-4-yl)-2-(2,6-dioxopiperidin-3-yl)isoindoline-1,3-dione] | > 10000 nM | > 50% | > 50 nM | > 10000 nM |  |  |  |
| NC(=O)c1c(-c2ccc(Oc3ccccc3)cc2)nn2c1NCC[C@H]2C1CCN(CC2CCN(C(=O)N3CCN(Cc4ccc5c(c4)C(=O)N(C4CCC(=O)NC4=O)C5=O)CC3)CC2)CC1 (stereo partly drawn) [Compound 399, (7S)-7-(1-((1-(4-((2-(2,6-dioxopiperidin-3-yl)-1,3-dioxoisoindolin-5-yl)methyl)piperazine-1-carbonyl)piperidin-4-yl)methyl)piperidin-4-yl)-2-(4-phenoxyphenyl)-4,5,6,7-tetrahydropyrazolo[1,5-a]pyrimidine-3-carboxamide] | 1000 to 10000 nM |  |  | > 10000 nM | > 50 nM | > 50% |  |
| NC(=O)c1c(-c2ccc(Oc3ccccc3)cc2)nn2c1NCC[C@H]2C1CCN(CC2CCN(C(=O)N3CCN(c4ccc5c(c4)CN(C4CCC(=O)NC4=O)C5=O)CC3)CC2)CC1 (stereo partly drawn) [Compound 398, (7S)-7-(1-((1-(4-(2-(2,6-dioxopiperidin-3-yl)-1-oxoisoindolin-5-yl)piperazine-1-carbonyl)piperidin-4-yl)methyl)piperidin-4-yl)-2-(4-phenoxyphenyl)-4,5,6,7-tetrahydropyrazolo[1,5-a]pyrimidine-3-carboxamide] | > 10000 nM |  |  | > 10000 nM | > 50 nM | > 50% |  |
| NC(=O)c1c(-c2ccc(Oc3ccccc3)cc2)nn2c1NCC[C@H]2C1CCN(C2CCN(C(=O)N3CCC(CC4CCN(c5ccc6c(c5)CN(C5CCC(=O)NC5=O)C6=O)CC4)CC3)CC2)CC1 (stereo partly drawn) [Compound 394, (7S)-7-(1′-(4-((1-(2-(2,6-dioxopiperidin-3-yl)-1-oxoisoindolin-5-yl)piperidin-4-yl)methyl)piperidine-1-carbonyl)-[1,4′-bipiperidin]-4-yl)-2-(4-phenoxyphenyl)-4,5,6,7-tetrahydropyrazolo[1,5-a]pyrimidine-3-carboxamide] | < 1000 nM |  |  | 1000 to 10000 nM | 10 to 50 nM | > 75% |  |
| Nc1ncnc2c1c(-c1ccc(Oc3ccccc3)cc1)nn2C1CCC(C(=O)N2CC(C3CCN(c4ccc5c(c4)C(=O)N(C4CCC(=O)NC4=O)C5=O)CC3)C2)CC1 (centres unmarked) [Compound 513, 5-(4-(1-(4-(4-amino-3-(4-phenoxyphenyl)-1H-pyrazolo[3,4-d]pyrimidin-1-yl)cyclohexane-1-carbonyl)azetidin-3-yl)piperidin-1-yl)-2-(2,6-dioxopiperidin-3-yl)isoindoline-1,3-dione] | < 1000 nM |  |  | < 1000 nM | < 10 nM | > 90% |  |
| Nc1ncnc2c1c(-c1ccc(Oc3ccccc3)cc1)nn2C1CCN(C2CCN(C(=O)N3CCN(c4ccc5c(c4)CN(C4CCC(=O)NC4=O)C5=O)CC3)CC2)CC1 (centres unmarked) [Compound 230, 3-(5-(4-(4-(4-amino-3-(4-phenoxyphenyl)-1H-pyrazolo[3,4-d]pyrimidin-1-yl)-[1,4′-bipiperidine]-1′-carbonyl)piperazin-1-yl)-1-oxoisoindolin-2-yl)piperidine-2,6-dione] | 1000 to 10000 nM | > 50% | > 50 nM | 1000 to 10000 nM |  |  |  |
| Nc1ncnc2c1c(-c1ccc(Oc3ccccc3)cc1)nn2[C@@H]1CCCN(C2CCN(C(=O)N3CC(N4CCN(c5ccc6c(c5)CN(C5CCC(=O)NC5=O)C6=O)CC4)C3)CC2)C1 (stereo partly drawn) [Compound 476, 3-(5-(4-(1-((R)-3-(4-amino-3-(4-phenoxyphenyl)-1H-pyrazolo[3,4-d]pyrimidin-1-yl)-[1,4′-bipiperidine]-1′-carbonyl)azetidin-3-yl)piperazin-1-yl)-1-oxoisoindolin-2-yl)piperidine-2,6-dione] | < 1000 nM |  |  | < 1000 nM | < 10 nM | > 90% | dose-dependent degradation |
| Nc1ncnc2c1c(-c1ccc(Oc3ccccc3)cc1)nn2C1CCN(CC2CCN(CCN3CCN(c4ccc5c(c4)CN(C4CCC(=O)NC4=O)C5=O)CC3)CC2)CC1 (centres unmarked) [Compound 204, 3-(5-(4-(2-(4-((4-(4-amino-3-(4-phenoxyphenyl)-1H-pyrazolo[3,4-d]pyrimidin-1-yl)piperidin-1-yl)methyl)piperidin-1-yl)ethyl)piperazin-1-yl)-1-oxoisoindolin-2-yl)piperidine-2,6-dione] | < 1000 nM | > 90% | 10 to 50 nM | 1000 to 10000 nM |  |  |  |

— US12139492B2 (Endotarget Inc., priority 2021, dated 2024)
